Reference: patent publication US20230233546A1, “METHODS OF TREATING CANCER” (Kymera Therapeutics, Inc., priority 2021, published 2023)

What was measured:
[1] = test system: Acute lymphoblastic leukemia cells (RS4;11); experiment: Cell Titer Glo cell viability / growth inhibition in RS4;11; assay type: cell-based; conditions: for IC50: Homo sapiens, RS4-11, read-out: all cell killing CTG IC50 in RS4;11
Method: (§1) In vitro cell viability in all cells lines, at optimized growth conditions, was assessed using Cell Titer Glo (Promega) assay performed over 24 h-96 h compound treatments. Compound treatments were carried out using a 11-point dose response, 3-fold serial dilutions stating at a maximum concentration of 1 uM. IC50, IC90 values were calculated by curve fitting using appropriate Nonlinear Regression fit in GraphPad Prism. Cell cycle arrest and/or apoptosis in response to single agent or combination treatment was assessed using flow cytometry analysis on cells treated for 24 h.
Acute lymphoblastic leukemia cells (RS4;11) were treated for 24 h with Compound A or small molecule inhibitor DS-3032 in a 3-fold serial dilution dose-response at maximum concentration of 1 mM. Growth inhibition was quantified using Cell titer glo (Promega) assay at 24 h continuous treatment.

CTG-2240 AML PDX = experiment: AML patient-derived xenograft model CTG-2240; assay type: in vivo, mouse; conditions: 1 mg/kg, Q3W, IV
Method: (§2) AML patient cells from leukapheresis were intravenously (IV) injected and established in immunocompromised host strain mice. Surrogate animals were used to determine the level of engraftment targeting a threshold of ˜20% huCD45+ cells in BM. Mice were randomized on study and treatment was initiated. Vehicle and Compound A, 1 mg/kg were administered IV, every three weeks for six weeks (total of two doses of Compound A). At study end, whole blood, bone marrow and spleen were assessed by flow cytometry.

CTG-2700 AML PDX = experiment: AML patient-derived xenograft model CTG-2700; assay type: in vivo, mouse; conditions: 1 mg/kg, Q3W, IV
Method: as §2

[2] = test system: Acute lymphoblastic leukemia cells (RS4;11); experiment: Washout apoptosis assay, Caspase Glo 3/7 in RS4;11; assay type: cell-based; conditions: RS4;11, 4 h exposure followed by washout, measured at 24 or 48 h post treatment
Method: For washout assay, cells were treated for 4-24 h at serial dilutions indicated above. At the end of treatment times (4 h, 8 h, 16 h and 24 h) cells were washed twice with complete media, plated in 384-well plates and incubated for 24-72 h. Cells were assessed for viability using Cell Titer Glo (Promega) assay and apoptosis using Caspase Glo 3/7 (Promega) assay at 24 h, 48 h and 72 h post the start of treatment.
Acute lymphoblastic leukemia cells (RS4;11) were treated for 4 h (8 h, 16 h, 24 h—data not shown) with Compound A or small molecule inhibitor DS-3032 at indicated concentrations. Apoptotic activity was quantified as increase in Caspase activity measured using Caspase Glo® 3/7 assay system (Promega).

p53 = p53 stabilization, p53 MSD assay in RS4;11 cells; assay type: cell-based; conditions: RS4;11, 2 h treatment
Method: Acute lymphoblastic leukemia cells (RS4;11) were treated for 2 h (4 h, 8 h and 24 h—data not shown) with Compound A or small molecule inhibitor DS-3032 in a 3-fold serial dilution dose-response at maximum concentration of 1 mM. p53 levels were quantified using p53 MSD assay (Total p53 Whole Cell Lysate Kit, MSD, K150DBD-2).

[3] = target: T1, C-terminally HiBiT-tagged MDM2 (Homo sapiens, UniProt Q00987); experiment: MDM2 degradation, HiBiT signal (Nano-Glo HiBiT lytic detection) in 293T cells; assay type: cell-based
T1 construct: expressed in transfected cells
Method: 293T cells stably expressing C-terminally HiBiT-tagged MDM2 were treated for 4 h with Compound A or small molecule inhibitor DS-3032 in a 3-fold serial dilution dose-response at maximum concentration of 1 mM. Degradation potency was measured as reduction in HiBiT signal, quantified using Nano-Glo® HiBiT lytic detection system (Promega).

MOLM-13 xenograft = MOLM-13 xenograft model, combination with standard of care; assay type: in vivo
disseminated AML model = experiment: Disseminated AML xenograft model, survival; assay type: in vivo, mouse; conditions: weekly administration, compared to vehicle treated animals
Method: Female mice, 5-8 wks old mice NOD/SCID mice from SPF (Beijing) experimental Animal Science Technology Co., ltd. Animals were received, housed and observed for seven days prior to study initiation. Each mouse will be with tumor cells in 0.1 ml PBS via tail-vein injection. Groups and treatments were started 4 days post-inoculation. Based on the body weight, mice were randomly assigned to respective groups using a computer-generated randomization procedure. Compound A was formulated in 20% HP-β-CD at concentrations up to 0.1 mg/mL and administered intravenously to tumor bearing animals.
In this model, Compound A exposures correlated with induction of apoptotic p53 target genes and tumor growth inhibition.

[4] = test system: hCD45+ cells in bone marrow and AML blasts; experiment: AML PDX models, flow cytometry at study end; assay type: in vivo, mouse; conditions: 1 mg/kg, Q3W
Method: as §2

MOLM-13 cell line = experiment: Combination treatment in MOLM-13 cell line, apoptosis and cell killing; assay type: cell-based; conditions: combination with venetoclax and midostaurin
Method: as §1

p53, p21, and PUMA = experiment: Protein markers in RS4;11 tumor xenografts, western blot; assay type: in vivo, mouse; conditions: 1 mg/kg
Method: At various times tumor bearing animals were sacrificed and plasma and tumors collected for pharmacokinetic and pharmacodynamic determinations.
(§3) Compound A was administered as a single intravenous bolus in RS411 tumor bearing mice at doses of 1, 3, and 10 mg/kg. […] Change in the levels of protein markers in degrader treated xenografts was quantified relative vehicle treated xenografts using western blot assay. Clinical equivalent doses of SMIs had no significant in vivo impact in these xenograft models.

[5] = test system: panel of solid and hematological tumor cell lines; experiment: Cell growth inhibition across a tumor cell line panel; assay type: cell-based
Method: as §1

[6] = test system: OCI-LY10 p53^WT ABC-subtype DLBCL xenograft; experiment: OCI-LY10 DLBCL xenograft model; assay type: in vivo
RS4;11 tumor = experiment: RS4;11 subcutaneous mouse xenograft, tumor volume; assay type: in vivo; conditions: single intravenous bolus, 1, 3, and 10 mg/kg; doses as low as 1 mg/kg
Method: Female mice, 5-8 wks old mice NOD/SCID mice from SPF (Beijing) experimental Animal Science Technology Co., ltd. Animals were received, housed and observed for seven days prior to study initiation. Each mouse were inoculated subcutaneously with RS4;11 tumor cells (1×107) in 0.1 ml of RPMI1640 with 10% FBS for tumor development. Groups and treatments were started when the mean tumor volume reached about 100 mm3 for study. Based on the tumor volume, mice were randomly assigned to respective groups using a computer-generated randomization procedure. Compound A was formulated in 20% HP-β-CD at concentrations up to 0.1 mg/mL and administered intravenously to tumor bearing animals. Tumor size was measured twice to three times weekly in three dimensions using a caliper. The measurement of tumor size were conducted twice weekly with a caliper and recorded. The tumor volume (mm^3) was estimated using the formula: TV=a×b2/2, where “a” and “b” are long and short diameters of a tumor, respectively.
as §3

[7] = test system: multiple heme indications (AML, T cell lymphomas, mantle cell lymphoma, DLBCL); experiment: In vitro activity across heme indications; assay type: cell-based; conditions: mantle cell lymphoma, and DLBCL most sensitive
Method: as §1

[8] = test system: CTG-2227 AML patient-derived xenograft (PDX); experiment: AML patient-derived xenograft model CTG-2227; assay type: in vivo, mouse; conditions: 1 mg/kg, Q3W, IV
Method: as §2

[9] = test system: TMD8 p53^MUT ABC-subtype DLBCL xenograft; experiment: TMD8 DLBCL xenograft model; assay type: in vivo

T1 sequence (Q00987 whole entry): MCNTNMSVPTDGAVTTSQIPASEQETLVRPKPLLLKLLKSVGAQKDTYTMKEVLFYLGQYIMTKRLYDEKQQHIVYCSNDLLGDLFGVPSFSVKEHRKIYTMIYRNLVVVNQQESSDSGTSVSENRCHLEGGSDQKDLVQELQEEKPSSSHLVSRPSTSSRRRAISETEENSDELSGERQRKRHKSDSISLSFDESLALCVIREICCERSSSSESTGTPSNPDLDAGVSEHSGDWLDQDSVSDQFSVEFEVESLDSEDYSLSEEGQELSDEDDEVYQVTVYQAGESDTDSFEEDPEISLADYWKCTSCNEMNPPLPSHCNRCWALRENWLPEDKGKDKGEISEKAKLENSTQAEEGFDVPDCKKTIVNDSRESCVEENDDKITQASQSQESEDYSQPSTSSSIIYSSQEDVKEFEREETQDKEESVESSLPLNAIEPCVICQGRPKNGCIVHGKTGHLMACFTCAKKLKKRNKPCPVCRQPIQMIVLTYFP

Compound: CC(C)[C@@H](CS(=O)(=O)C(C)C)N1C(=O)[C@@](C)(CC(=O)O)C[C@H](c2cccc(Cl)c2)[C@H]1c1ccc(Cl)cc1 [AMG-232]
- IC50 [1]: 280 nM

Compound: Cn1c(=O)n(C2CCC(=O)NC2=O)c2ccc(C3CCN(C(=O)[C@H]4CC[C@H](NC(=O)[C@@H]5NC6(CCCCC6)[C@@]6(C(=O)Nc7cc(Cl)ccc76)[C@H]5c5cccc(Cl)c5F)CC4)CC3)cc21 (stereo partly drawn) [Compound A, (3′R,4'S,5′R)-6″-chloro-4′-(3-chloro-2-fluorophenyl)-N-((1R,4R)-4-(4-(1-(2,6-dioxopiperidin-3-yl)-3-methyl-2-oxo-2,3-dihydro-1H-benzo[d]imidazol-5-yl)piperidine-1-carbonyl)cyclohexyl)-2″-oxodispiro[cyclohexane-1,2′-pyrrolidine-3′,3″-indoline]-5′-carboxamide]
- response in CTG-2240 AML PDX model (CTG-2240 AML PDX): partial responses
- response in CTG-2700 AML PDX model (CTG-2700 AML PDX): partial responses
- induction of apoptosis (Caspase activity) [2]: sufficient to potently induce apoptosis
- stabilization of p53 (p53): strong stabilization of p53
- degradation of MDM2 ([3]; 4 h treatment): rapid and potent degradation of MDM2
- degrades MDM2 at ([3]; FIG. 1, HiBiT-tagged MDM2, 4 h treatment): 0.4 nM
- IC50 [1]: 0.3 nM
- cancer cell growth inhibition ([1]; RS4;11, 24 h continuous treatment, compared with SMI): potently inhibits cancer cell growth
- anti-tumor activity in MOLM-13 xenograft model (MOLM-13 xenograft; single dose in combination with daily dosing of venetoclax): sustained tumor regression
- survival (disseminated AML model): significantly prolonged the survival
- hCD45+ cells in bone marrow and AML blasts [4]: significantly reduces
- induction of apoptosis and cell killing in combination (MOLM-13 cell line): enhances induction of apoptosis and cell killing
- time of peak of protein marker upregulation post-dose (p53, p21, and PUMA): 6 h
- upregulation of protein markers p53, p21, and PUMA in tumor xenografts (p53, p21, and PUMA; relative to vehicle treated xenografts): marked upregulation
- stronger cell growth inhibition, compared to SMIs [5]: > 200 fold
- activity in OCI-LY10 xenograft model [6]: highly active
- anti-tumor activity (RS4;11 tumor): sustained tumor regression
- in vitro activity across heme indications [7]: active across multiple heme indications
- response in CTG-2227 AML PDX model [8]: tumor regression
- activity in TMD8 xenograft model [9]: not

Compound: CC1(C)CCC2(CC1)N[C@@H](C(=O)N[C@@H]1CC[C@@H](C(N)=O)OC1)[C@H](c1ccnc(Cl)c1F)[C@]21C(=O)Nc2cc(Cl)ccc21 [DS-3032]
- IC50 [1]: 67 nM

Compound: COc1ncc(-c2nc3c(n2C(C)C)[C@H](c2ccc(Cl)cc2)N(c2cc(Cl)cn(C)c2=O)C3=O)c(OC)n1 [HDM201]
- IC50 [1]: 163 nM

Compound: COc1cc(C(=O)O)ccc1NC(=O)[C@@H]1N[C@@H](CC(C)(C)C)[C@](C#N)(c2ccc(Cl)cc2F)[C@H]1c1cccc(Cl)c1F [RG7388]
- IC50 [1]: 220 nM

Compound: CC(C)(C)C[C@@H]1N[C@@H](C(=O)N[C@H]2CC[C@H](O)CC2)[C@H](c2cccc(Cl)c2F)[C@]12C(=O)Nc1cc(Cl)ccc12 [SAR405838]
- IC50 [1]: 620 nM

Compound: Nc1ccn([C@@H]2O[C@H](CO)[C@@H](O)[C@@H]2O)c(=O)n1 [cytarabine]
- anti-tumor activity in MOLM-13 xenograft model (MOLM-13 xenograft; combination of cytarabine and venetoclax): no significant anti-tumor activity
- anti-tumor activity in MOLM-13 xenograft model (MOLM-13 xenograft; cytarabine alone): no significant anti-tumor activity
